# Reference: PMC10541198, “Specific quinone reductase 2 inhibitors reduce metabolic burden and reverse Alzheimer’s disease phenotype in mice” (The Journal of Clinical Investigation, 2023)
# “And” between values parts separate entries of the source, which are not always exact repeats. Identical values can stand only once.
# What was measured:
# eIF2α = assay: Immunoblot of total and phosphorylated eIF2α 3 hours after CA1 microinjection; type: in vivo, mouse
# Method: In order to evaluate the efficacy of some of the leading QR2is in vivo, we carried out double-blind experiments using 2 different modalities (Supplemental Methods), measuring memory that is dependent on different brain areas. First, cortical memory was tested using incidental novel taste learning (see Methods), in which an unfamiliar, but palatable and safe, taste is given for the first time, and the memory for this newly learned taste is then assessed 2 days later. This is done by measuring the volume of the taste consumed upon subsequent exposure to it ([32]) (Figure 4A). […] Next, hippocampal-dependent learning was evaluated using delay fear conditioning (DFC; see Methods) ([33]). Mice were cannulated to the CA1 region of the hippocampus and were microinjected with YB-537 (1 μL of 5 μM, Figure 4, D and H) or vehicle. […] In order to evaluate any possible effect of acute QR2i microinjection on metabolic stress in the mouse brain, ISR activation was measured by quantifying total and phosphorylated eukaryotic initiation factor 2 α (eIF2α) levels (Supplemental Figure 3A) and lipid peroxidation product, 4-hydroxynonenal (4-HNE; Supplemental Figure 3B), by immunoblot 3 hours after the injection. […]
# QR2 = assay: Immunoblot of QR2 in HCT116 cells after 4-day treatment; type: cell-based, human; conditions: 2 μM, 4 days; for QR2 expression, mean ± SEM (vehicle = 1): HCT116, n=6
# Method: To establish direct target engagement and cell membrane permeability, a cellular thermal shift assay (CETSA) was carried out, using leading QR2is YB’s-537, 800, and 808. Following a 1 hour preincubation with 5 μM of the QR2is or vehicle, thermal aggregation curves (Taggs) of QR2 expressed in HEK293T were measured in increasing temperatures. All QR2is increased QR2 thermal stability compared with vehicle (Supplemental Figure 2A). Based on the Tagg curves we selected 73°C for isothermal dose-response fingerprint (IDTRF) experiments (Supplemental Figure 2B). The ITDRF allowed the relative quantification of the binding of each of the QR2is to QR2, measured as the EC50 (Figure 3A). […] We evaluated the safety of the QR2is using cell toxicity and viability assays. […] Cell viability was assessed by XTT assay in HEK239T cells, using a dose response, with 3- or 24-hour incubations of the leading QR2is. No sign of toxicity was seen (Figure 3C). Next, we wanted to assess if, similar to QR2 KO, QR2is can reduce cellular ROS in HCT116 cells and see whether any observable effect is occluded in QR2Δ cells. […] We then assessed WT HCT116 cells by immunoblot (Supplemental Figure 2, C and D), after being treated with YB-800 (2 μM) for 4 consecutive days.
# H2DCFDA ROS assay was carried out according to established protocols, with some adjustment (Supplemental Methods) ([6]). Cell toxicity was measured via ATP depletion (CellTiter Glo, Promega) in THLE-2 cells (ATCC, CRL-2706), following 72 hours of exposure to the test compounds, and cell viability was assessed using XTT assay (Biological Industries) according to manufacturers protocols. […]
# (Ser51) eIF2α (1:1000, Cell Signaling, 9721), diluted in blocking buffer. The ne xt day, the m em br anes w e re washed three times in TBST and incubated at room temperature (RT) for 1 h with 1:10,000 secondary antibodies conjugated to horseradish peroxidase, and following a further t hr e e times washes in TBSTwere immunoblotted with Westar Supernova (Cyanagen), imaged using a charge-coupled device camera and analyzed using Quantity One software (Bio-Rad). […]
Structure (SMILES),eIF2α phosphorylation levels (eIF2α; 3 hours after microinjection in the mouse hippocampus),"eIF2α phosphorylation, immunoblot (individual mice) (eIF2α; 3 hours after microinjection, Sup. Fig. 3A)",QR2 expression (replicates) (QR2; HCT116),"QR2 expression, mean ± SEM (vehicle = 1) (QR2)","QR2 expression, mean ± SEM (vehicle = 1) (QR2; listed as NG800)"
Cc1ccc(-c2cn3cccc(C)c3n2)cc1S(=O)(=O)N1CCNCC1 [YB-537],insignificant reduction,1.423 and 1.158 and 1.034 and 0.527 and 1.086 and 1.215 and 0.836,,,
Cc1ccc(-c2cn3cccc(C)c3n2)cc1S(=O)(=O)N1CCC(C)CC1 [YB-800],,,1.514 and 1.125 and 1.62 and 0.8886 and 0.7618 and 1.183,unchanged,1.182 ± 0.137
